molecular target: C-Raf FL (Homo sapiens (Human), UniProt P04049, Y340E/Y341E); test: In vitro Raf activity determination (Alpha Screen, phospho-MEK), C-Raf FL (full length, Y340E/Y341E); format: biochemical; conditions: ATP 1 μM; 60 min pre-incubation; 1 hour reaction; column head does not say FL or TR
In short: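 Read-out is AlphaScreen luminescence using rabbit anti-p-MEK with protein A beads after EDTA stop, with IC50 fitted by non-linear regression. Reaction: Sf9-derived C-Raf plus biotinylated E. coli MEK1 K97R substrate, pH 7.5 Tris/MgCl2/DTT buffer, compound preincubated 60 min at room temperature.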

In order of rising IC50:
1. Cc1ccc(NC(=O)c2ccnc(C(F)(F)CF)c2)cc1-c1cc(OC[C@H](O)CO)nc(C2CCOCC2)c1 [Example 273, (R)-N-(3-(2-(2,3-dihydroxypropoxy)-6-(tetrahydro-2H-pyran-4-yl)pyridin-4-yl)-4-methylphenyl)-2-(1,1,2-trifluoroethyl) isonicotinamide]  0.01 nM
2. N-(3-(2- (hydroxymethyl)-2- methyl-3-oxo-8- (tetrahydro-2H- pyran-4-yl)-3,4-dihydro- 2H- benzo[b][1,4]oxazin-6- yl)-4-methylphenyl)-5- (trifluoromethyl) pyridazine-3-carboxamide [Example 204]  0.02 nM
3. CCOc1nnc(-c2cc(NC(=O)c3ccnc(C(F)(F)F)c3)ccc2C)cc1C1CCOCC1 [Example 239, N-(3-(6-ethoxy-5-(tetrahydro-2H-pyran-4-yl)pyridazin-3-yl)-4-methylphenyl)-2-(trifluoromethyl) isonicotinamide]  0.04 nM
4. CCOc1nnc(-c2cc(NC(=O)c3cc(C(F)(F)F)c(Cl)cn3)ccc2C)cc1C1CCOCC1 [Example 228, 5-chloro-N-(3-(6-ethoxy-5-(tetrahydro-2H-pyran-4-yl)pyridazin-3-yl)-4-methylphenyl)-4-(trifluoromethyl) picolinamide]  0.06 nM
5. CCOc1nnc(-c2cc(NC(=O)c3cccc(C(F)(F)F)c3)cnc2C)cc1C1CCOCC1 [Example 234, N-(5-(6-ethoxy-5-(tetrahydro-2H-pyran-4-yl)pyridazin-3-yl)-6-methylpyridin-3-yl)-3-(trifluoromethyl) benzamide]  0.08 nM
6. Cc1ccc(NC(=O)c2cnnc(C(F)(F)F)c2)cc1-c1cc(OCCO)nc(C2(C)CCOCC2)c1 [Example 207, N-(3-(2-(2-hydroxyethoxy)-6-(4-methyltetrahydro-2H-pyran-4-yl)pyridin-4-yl)-4-methylphenyl)-6-(trifluoromethyl) pyridazine-4-carboxamide]  0.1 nM
7. Cc1ccc(NC(=O)c2cc(C(F)(F)F)cn(C)c2=O)cc1-c1cc(OCCO)nc(C2CCOCC2)c1 [Example 253, N-(3-(2-(2-hydroxyethoxy)-6-(terahydro-2H-pyran-4-yl)pyridin-4-yl)-4-methylphenyl)-1-methyl-2-oxo-5-(trifluoromethyl)-1,2-dihydropyridine-3-carboxamide]  0.1 nM
8. CCOc1nnc(-c2cc(NC(=O)NCCC(C)(C)C)ccc2C)cc1C1CCOCC1 [Example 318, 1-(3,3-dimethylbutyl)-3-(3-(6-ethoxy-5-(tetrahydro-2H-pyran-4-yl)pyridazin-3-yl)-4-methylphenyl)urea]  0.1 nM
9. Cc1ccc(NC(=O)c2cnnc(C(F)(F)F)c2)cc1-c1cc2c(c(C3CCOCC3)c1)OC(C)(CO)C(=O)N2 (stereo not drawn) [Example 201, N-(3-(2-(hydroxymethyl)-2-methyl-3-oxo-8-(tetrahydro-2H-pyran-4-yl)-3,4-dihydro-2H-benzo[b][1,4]oxazin-6-yl)-4-methylphenyl)-6-(trifluoromethyl) pyridazine-4-carboxamide]  0.1 nM
10. Cc1ccc(NC(=O)c2cccc(C(F)(F)F)c2)cc1-c1cc(OCCO)nc(C2CCOCC2)c1 [Example 189, N-(3-(2-(2-hydroxyethoxy)-6-(tetrahydro-2H-pyran-4-yl)pyridin-4-yl)-4-methylphenyl)-3-(trifluoromethyl) benzamide]  0.136 nM
11. Cc1ccc(NC(=O)c2ccnc(C(C)(F)F)c2)cc1-c1cc(OCCO)nc(C2(CF)COC2)c1 [Example 56, 2-(1,1-difluoroethyl)-N-(3-(2-(3-(fluoromethyl)oxetan-3-yl)-6-(2-hydroxyethoxy)pyridin-4-yl)-4-methylphenyl)isonicotin-amide]  0.281 nM
12. Cc1ccc(NC(=O)c2cnnc(C(F)(F)F)c2)cc1-c1cc(OCCO)nc(C2(CO)CCOCC2)c1 [Example 217]  0.3 nM
13. Cc1ncc(NC(=O)c2cccc(C(F)(F)F)c2)cc1-c1cc(C2COC2)c2nccn2n1 [Example 9, N-(6-methyl-5-(8-(oxetan-3-yl)imidazo[1,2-b]pyridazin-6-yl)pyridin-3-yl)-3-(trifluoromethyl)benzamide]  0.3 nM
14. Cc1ccc(NC(=O)c2ccnc(C(C)(F)F)c2)cc1-c1cc(OCCO)nc(C2(C)CCOCC2)c1 [Example 206, 2-(1,1-difluoroethyl)-N-(3-(2-(2-hydroxyethoxy)-6-(4-methyltetrahydro-2H-pyran-4-yl)pyridin-4-yl)-4-methylphenyl) isonicotinamide]  0.4 nM
15. Cc1ccc(NC(=O)c2ccnc(C(F)(F)F)c2)cc1-c1cc(C2CCOCC2)c(N(C)CCO)nn1 [Example 308]  0.5 nM
16. COc1ncc(-c2cc(C(=O)Nc3cccc(C(F)F)c3)ccc2C)cc1C1(O)COC1 [Example 18, N-(3-(difluoromethyl)phenyl)-3-(5-(3-hydroxyoxetan-3-yl)-6-methoxypyridin-3-yl)-4-methylbenzamide]  0.6 nM
17. Cc1ncc(NC(=O)c2cccc(C(F)(F)F)c2)cc1-c1cc(C2(C)COC2)c(OC2CCOCC2)nn1 [Example 11]  0.6 nM
18. Cc1nc2cc(C3CCOCC3)cc(-c3cc(NC(=O)c4ccnc(C(C)(C)C#N)c4)ccc3C)c2[nH]1 [Example 223, 2-(2-cyanopropan-2-yl)-N-(4-methyl-3-(2-methyl-5-(tetrahydro-2H-pyran-4-yl)-1H-benzo[d]imidazol-7-yl)phenyl) isonicotinamide]  0.6 nM
19. COC1(c2cc(-c3cc(NC(=O)c4cccc(C(F)(F)F)c4)cnc3C)cc(OCCO)n2)COC1 [Example 160, N-(2′-(2-hydroxyethoxy)-6′-(3-methoxyoxetan-3-yl)-2-methyl-[3,4′-bipyridin]-5-yl)-3-(trifluoromethyl)benzamide]  0.7 nM
20. Cc1ncc(NC(=O)c2cccc(C(F)(F)F)c2)cc1-c1cc(C2(C)COC2)c(=O)[nH]n1 [Example 15, N-(6-methyl-5-(5-(3-methyloxetan-3-yl)-6-oxo-1,6-dihydropyridazin-3-yl)pyridin-3-yl)-3-(trifluoromethyl)benzamide]  1 nM
21. Cc1ncc(NC(=O)c2cccc(C(F)(F)F)c2)cc1-c1cc(C2CCOCC2)nc(N2CCC(O)CC2)c1 [Example 183, N-(2′-(4-hydroxypiperidin-1-yl)-2-methyl-6′-(tetrahydro-2H-pyran-4-yl)-[3,4′-bipyridin]-5-yl)-3-(trifluoromethyl) benzamide]  1.99 nM
22. CCOc1nnc(-c2cc(NC(=O)c3ccnc(C(C)(C)F)c3)cnc2C)cc1C1CCOCC1 [Example 233, N-(5-(6-ethoxy-5-(tetrahydro-2H-pyran-4-yl)pyridazin-3-yl)-6-methylpyridin-3-yl)-2-(2-fluoropropan-2-yl) isonicotinamide]  2 nM
23. Cc1nc2cc(C3CCOCC3)cc(-c3cc(NC(=O)c4cnnc(C(F)(F)F)c4)ccc3C)c2[nH]1 [Example 221, N-(4-methyl-3-(2-methyl-5-(tetrahydro-2H-pyran-4-yl)-1H-benzo[d]imidazol-7-yl)phenyl)-6-(trifluoromethyl) pyridazine-4-carboxamide]  2 nM
24. Cc1ncc(NC(=O)c2ccnc(C(C)(F)F)c2)cc1-c1cc(C2(O)COC2)cc(C2(F)COC2)c1 [Example 141, 2-(1,1-difluoroethyl)-N-(5-(3-(3-fluorooxetan-3-yl)-5-(3-hydroxyoxetan-3-yl)phenyl)-6-methylpyridin-3-yl)isonicotinamide]  5.9 nM

Reference: patent publication US10167279B2 (NOVARTIS AG, priority 2014, dated 2019)
